# US11142515B2, “Pyrazolyl-ureas as kinase inhibitors” (RESPIVERT LIMITED, priority 2014, dated 2021)
# Experiments:
# [1] = target: T1, GSK 3α enzyme isoform (Homo sapiens, UniProt P49840); experiment: GSK 3α enzyme inhibition (Z-LYTE FRET); assay type: biochemical
# T1 construct: purchased Life Technologies
# Experimental: (§1) The enzyme inhibitory activities of compounds disclosed herein were determined by FRET using synthetic peptides labelled with both donor and acceptor fluorophores (Z-LYTE, Life Technologies, Paisley, UK).
# The GSK3a protein (500 ng/mL, 2.5 μL) was incubated with the test compound (2.5 μL at either 40 μg/mL, 12 μg/mL, 4 μg/mL, 1.2 μg/mL, 0.4 μg/mL, 0.12 μg/mL, 0.04 μg/mL, 0.012 μg/mL, 0.004 μg/mL or 0.0012 μg/mL) for 2 h at RT. The FRET peptide (8 μM, 2.5 μL), which is a phosphorylation target for GSK3α, and ATP (40 μM, 2.5 μL) was then added to the enzyme/compound mixture and the resulting mixture incubated for 1 h at RT. Development reagent (protease, 5 μL) was added for 1 h prior to detection in a fluorescence microplate reader (EnVision, Perkin Elmer).
# (§2) In all cases, the site-specific protease cleaves non-phosphorylated peptide only and eliminates the FRET signal. Phosphorylation levels of each reaction were calculated using the ratio of coumarin emission (donor) over fluorescein emission (acceptor), for which low ratios indicate high phosphorylation and high ratios indicate low phosphorylation levels.
# [2] = test system: d-U937 cells; experiment: Cell viability: MTT assay in differentiated U937 cells; assay type: cell-based, human; details: 10 μg/mL
# Experimental: Differentiated U937 cells were pre-incubated with each test compound (final concentration 10 μg/mL in 200 μL media indicated below) under two protocols: the first for 4 h in 5% FCS RPMI1640 media and the second in 10% FCS RPMI1640 media for 24 h. The supernatant was replaced with new media (200 μL) and MTT stock solution (10 μL, 5 mg/mL) was added to each well. After incubation for 1 h the media were removed, DMSO (200 μL) was added to each well and the plates were shaken lightly for 1 h prior to reading the absorbance at 550 nm. The percentage loss of cell viability was calculated for each well relative to vehicle (0.5% DMSO) treatment. Consequently an apparent increase in cell viability for drug treatment relative to vehicle is tabulated as a negative percentage.
# [3] = test system: sputum macrophages from COPD patients; experiment: Cytokine production in LPS-treated sputum macrophages from COPD patients; assay type: cell-based, human
# Experimental: Patients with COPD inhaled a nebulised solution of 3% (w/v) hypertonic saline using an ultrasonic nebuliser (Devilbiss, Carthage, Mo.) with tidal breathing for 5 min. This procedure was repeated a maximum of three times until enough sputum was obtained. The sputum samples were homogenized and mixed vigorously using a vortex mixer in 0.02% v/v dithiothreitol (DTT) solution. The samples were re-suspended in PBS (40 mL) followed by centrifugation at 1500 rpm at 4° C. for 10 min to obtain sputum cell pellets. The pellets were washed with PBS (40 mL). The sputum cells were then re-suspended in 4 mL macrophage serum-free medium (macrophage-SFM, Life technologies, containing 20 U/mL penicillin, 0.02 mg/mL streptomycin and 5 μg/mL amphotericin B) and seeded on high bound 96-well plate, followed by incubation for 1 h at 37° C. and at 5% CO2 to allow the macrophages to attach to the bottom of the plate. The cells on the plate were washed with fresh macrophage-SFM (200 μL/well) to remove neutrophils and other contaminated cells. The adherent cells (mainly sputum macrophages) on the plate were used for further analysis. Sputum inductions were conducted in Quintiles Drug Research Unit at Guys Hospital and ethics approval and written informed consent was obtained by Quintiles.
# Where appropriate, 1 μL of a solution containing either the test compound or reference article at the stated concentrations (either 0.1 μg/mL, 0.01 μg/mL, or 0.001 μg/mL) or alternatively 1 μL of DMSO as the vehicle control was added to each well (200 μL in media) and the cells were incubated for 2 h. The cells were stimulated with LPS solution (50 μL, final concentration: 1 μg/mL) and incubated for 18 h at 37° C. and 5% CO2. The supernatant was then collected and kept at −80° C. Suitable luminex kits were used to measure the selected analytes. After thawing the supernatant, the magnetic antibody beads were multiplexed and incubated in a 96-well plate with standard, background solution or the appropriate volume of sample overnight with shaking at 4° C. After washing twice with 200 μL of wash buffer provided by the kit per well using a magnetic plate washer, the beads were incubated for 1 h at RT with the biotin conjugated antibody solution provided by the kit with shaking. Streptavidin solution was added for 30 min with shaking at RT. After washing with 200 μL wash buffer per well, the beads were resuspended in sheath fluid (150 μL) and analyzed immediately. The level of each analyte in the supernatant was calculated using Xcel Fit software with a 4 or 5-parameter equation using each standard curve. The inhibitions of each cytokine production were calculated at each concentration by comparison with vehicle control.
# [4] = test system: HRV (RV16)-induced IL-8 release in BEAS2B cells; experiment: Rhinovirus-induced IL-8 release in BEAS2B cells; assay type: cell-based, human
# Experimental: Human rhinovirus RV16 is obtained from the American Type Culture Collection (Manassas, Va.). Viral stocks are generated by infecting MRC5 cells with HRV until 80% of the cells were cytopathic.
# BEAS2B cells are infected with HRV at an MOI of 1.2 and incubated for 1 h at 33° C. with gentle shaking to promote absorption. The cells are then washed with PBS, fresh media added and the cells are incubated for a further 72 h. The supernatant is collected for assay of IL-8 concentrations using a Duoset ELISA development kit (R&D systems, Minneapolis, Minn.). Compounds are added 2 h before HRV infection and 1 h after infection when non-infected HRV is washed out.
# [5] = test system: PBMCs (mitosis); experiment: Cell mitosis assay in PHA-treated PBMCs; assay type: cell-based, human
# Experimental: Peripheral blood mononucleocytes (PBMCs) from healthy subjects were separated from whole blood (Quintiles, London, UK) using a density gradient (Histopaquee-1077, Sigma-Aldrich, Poole, UK). The PBMCs (3 million cells per sample) were subsequently treated with 2% PHA (Sigma-Aldrich, Poole, UK) for 48 h, followed by a 20 h exposure to varying concentrations of test compounds. At 2 h before collection, PBMCs were treated with demecolcine (0.1 μg/mL; Life Technologies, Paisley, UK,) to arrest cells in metaphase.
# [6] = target: T2, Syk (Homo sapiens, UniProt P43405); experiment: Syk enzyme inhibition (Z-LYTE FRET); assay type: biochemical
# T2 construct: purchased Life Technologies
# Experimental: as §1
# The relevant enzyme (1000 ng/mL, 1400 ng/mL or 2000 ng/mL respectively, 2.5 μL) was incubated with the test compound (either 40 μg/mL, 12 μg/mL, 4 μg/mL, 1.2 μg/mL, 0.4 μg/mL, 0.12 μg/mL, 0.04 μg/mL, 0.012 μg/mL, 0.004 μg/mL or 0.0012 μg/mL, 2.5 μL each) for 2 h at RT. The FRET peptides (8 μM, 2.5 μL), and appropriate ATP solutions (2.5 μL, 800 μM for c-Src, and 60 μM ATP for HCK and Syk) were then added to the enzyme/compound mixtures and incubated for 1 h at RT. Development reagent (protease, 5 μL) was added for 1 h prior to detection in a fluorescence microplate reader (EnVision, Perkin Elmer).
# as §2
# [7] = test system: neutrophil accumulation in BALF; experiment: LPS-induced neutrophil accumulation in mice; assay type: in vivo, Balb/c mice; details: 1.75 μg/mouse
# Experimental: Non-fasted Balb/c mice were […] by the intra tracheal route with either vehicle, or the test substance at the indicated times (within the range 2-8 h) before stimulation of the inflammatory response by application of an LPS challenge. At T=0, mice were placed into an exposure chamber and exposed to LPS (7.0 mL, 0.5 mg/mL solution in PBS for 30 min). After a further 8 h the animals were anesthetized, their tracheas cannulated and BALF extracted by infusing and then withdrawing from their lungs 1.0 mL of PBS via the tracheal catheter. Total and differential white cell counts in the BALF samples were measured using a Neubaur haemocytometer. Cytospin smears of the BALF samples were prepared by centrifugation at 200 rpm for 5 min at RT and stained using a DiffQuik stain system (Dade Behring). Cells were counted using oil immersion microscopy. Data for neutrophil numbers in BAL are shown as mean±S.E.M. (standard error of the mean). The percentage inhibition of neutrophil accumulation was calculated for each treatment relative to vehicle treatment.
# [8] = test system: alveolar macrophages and neutrophils in BALF; experiment: Cigarette smoke model: macrophages and neutrophils in BALF; assay type: in vivo, A/J mice; details: 1.75 μg/mouse (35 μL, bid, i.n.)
# Experimental: A/J mice (males, 5 weeks old) were exposed to cigarette smoke (4% cigarette smoke, diluted with air) for 30 min/day for 11 days using a Tobacco Smoke Inhalation Experiment System for small animals (Model SIS-CS; Sibata Scientific Technology, Tokyo, Japan). […] At 12 h after the last […], each of the animals was anesthetized, the trachea cannulated and bronchoalveolar lavage fluid (BALF) was collected. The numbers of alveolar macrophages and neutrophils were determined by FACS analysis (EPICS® ALTRA II, Beckman Coulter, Inc., Fullerton, Calif., USA) using anti-mouse MOMA2 antibody (macrophage) or anti-mouse 7/4 antibody (neutrophil). BALF was centrifuged and the supernatant was collected. The level of keratinocyte chemoattractant (KC; CXCL1) in BALF was quantitated using a Quantikine® mouse KC ELISA kit (R&D systems, Inc., Minneapolis, Minn., USA).
# T1 sequence (P49840 whole entry, canonical isoform): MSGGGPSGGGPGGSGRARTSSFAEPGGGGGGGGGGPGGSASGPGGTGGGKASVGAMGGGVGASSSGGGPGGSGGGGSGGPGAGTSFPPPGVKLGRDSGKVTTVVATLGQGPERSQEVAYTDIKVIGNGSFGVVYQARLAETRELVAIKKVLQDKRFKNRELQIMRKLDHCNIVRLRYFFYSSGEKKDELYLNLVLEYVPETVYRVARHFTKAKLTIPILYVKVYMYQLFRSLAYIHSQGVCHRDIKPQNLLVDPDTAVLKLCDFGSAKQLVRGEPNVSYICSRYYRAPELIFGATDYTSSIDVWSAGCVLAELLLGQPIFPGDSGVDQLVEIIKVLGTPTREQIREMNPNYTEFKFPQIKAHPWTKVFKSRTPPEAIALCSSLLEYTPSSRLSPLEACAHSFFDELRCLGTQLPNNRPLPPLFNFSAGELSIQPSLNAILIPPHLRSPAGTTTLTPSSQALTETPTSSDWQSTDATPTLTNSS
SMILES,inhibitory activity against GSK3a (in words) [1],"MTT Assay Cell viability at time point indicated in d-U937 Cells, 4 h ([2]; 4 h)","MTT Assay Cell viability at time point indicated in d-U937 Cells, 24 h ([2]; 24 h)",inhibition of pro-inflammatory cytokine production in sputum macrophage compared with fluticasone propionate [3],inhibition of HRV-induced IL-8 (FIG. 1) [4],impact on cell division (mitosis) compared with Reference Compound [5],inhibitory activity against Syk (in words) [6],inhibition of LPS-induced neutrophil accumulation [7] [%],"inhibition at 0.1 µg/mL ([3]; Homo sapiens, Macrophage, read-out: E-max (maximum inhibition), IL-6 production in LPS-treated sputum macrophages) [%]",neutrophil or macrophage accumulation into airways (cigarette smoke model) [8]
"CCc1cncc(Nc2cc(COc3ccc(NC(=O)Nc4cc(C(C)(C)C)nn4-c4ccc(C)cc4)c4ccccc34)ccn2)n1 [Example 2, 1-(3-(tert-Butyl)-1-(p-tolyl)-1H-pyrazol-5-yl)-3-(4-((2-((6-ethylpyrazin-2-yl)amino)pyridin-4-yl)methoxy)naphthalen-1-yl)urea]",very much weaker than the Reference Compound,"− (−ve and +ve indicate the value is below and above, respectively, the no significant effect threshold defined as 30% inhibition at 10 μg/mL at the time point indicated)","− (−ve and +ve indicate the value is below and above, respectively, the no significant effect threshold defined as 30% inhibition at 10 μg/mL at the time point indicated)",higher efficacy,dose-dependent inhibition,markedly less activity,very much weaker than the Reference Compound,–,–,–
"CCC(=O)O[C@]1(C(=O)SCF)[C@H](C)C[C@H]2[C@@H]3C[C@H](F)C4=CC(=O)C=C[C@]4(C)[C@@]3(F)[C@@H](O)C[C@@]21C [Fluticasone propionate, fluticasone propionate, reference compound]",–,–,–,–,–,–,–,> 80,42,did not inhibit
